One test concerns the target T1, HCV polymerase (NS5B570n-Con1) (Hepatitis C virus genotype 1b, UniProt Q9WMX2).
T1 construct: contains a 21 amino acid deletion at the C-terminus relative to the full-length HCV polymerase; 6-histidine (N); made in house; host or cells: E. coli strain BL21(DE) pLysS (pET17b)
Put plainly: biochemical. Further details: species or system HCV Con1 strain. As to conditions: IC50 HCV NS5B RNA Polymerase Assay (values with asterisk), values with asterisk: cIRES RNA template, 3 nM NS5B570n-Con1.
Compound `COc1c(/C=C/c2ccncc2)cc(-c2ccc[nH]c2=O)cc1C(C)(C)C` [I-240, 3-[3-tert-Butyl-4-methoxy-5-((E)-2-pyridin-4-yl-vinyl)-phenyl]-1H-pyridin-2-one] gave an IC50 of 5 nM.

The compound `COc1c(/C=C/c2ccccn2)cc(-c2ccc[nH]c2=O)cc1C(C)(C)C` [I-241, 3-[3-tert-Butyl-4-methoxy-5-((E)-2-pyridin-2-yl-vinyl)-phenyl]-1H-pyridin-2-one] came in with an IC50 of 3 nM.

As for `COC(=O)c1ccccc1/C=C/c1cc(-c2ccc[nH]c2=O)cc(C(C)(C)C)c1OC` [I-242, 2-{(E)-2-[3-tert-Butyl-2-methoxy-5-(2-oxo-1,2-dihydro-pyridin-3-yl)-phenyl]-vinyl}-benzoic acid methyl ester], it took 2 nM to reach half-maximal inhibition (IC50).

`COc1c(/C=C/c2ccccc2S(C)(=O)=O)cc(-c2ccc[nH]c2=O)cc1C(C)(C)C` [I-244, 3-{3-tert-Butyl-5-[(E)-2-(2-methanesulfonyl-phenyl)-vinyl]-4-methoxy-phenyl}-1H-pyridin-2-one] had an IC50 of 1 nM.

`COc1c(/C=C/c2ccncc2C#N)cc(-c2ccc[nH]c2=O)cc1C(C)(C)C` [I-245, 4-{(L)-2-[3-tert-Butyl-2-methoxy-5-(2-oxo-1,2-dihydro-pyridin-3-yl)-phenyl]-vinyl}-nicotinonitrile] registered an IC50 of 1 nM.

Compound `COc1c(/C=C/c2ccccc2C(=O)O)cc(-c2ccc[nH]c2=O)cc1C(C)(C)C` [I-246, 2-{(E)-2-[3-tert-Butyl-2-methoxy-5-(2-oxo-1,2-dihydro-pyridin-3-yl)-phenyl]-vinyl}-benzoic acid] came in with an IC50 of 1 nM.

With `CCOc1c(/C=C/c2ccc(NS(C)(=O)=O)cc2)cc(-c2ccc[nH]c2=O)cc1C(C)(C)C` [I-249], the half-maximal inhibitory concentration (IC50) was 11 nM.

In the case of `COCCOc1c(/C=C/c2ccc(NS(C)(=O)=O)cc2)cc(-c2ccc[nH]c2=O)cc1C(C)(C)C` [I-250], inhibition was half-maximal at 23 nM (IC50).

The compound `COc1c(NC(=O)c2ccc(NCC(F)(F)F)c(F)c2)cc(-c2ccc[nH]c2=O)cc1C(C)(C)C` [I-251, N-[3-tert-Butyl-2-methoxy-5-(2-oxo-1,2-dihydro-pyridin-3-yl)-phenyl]-3-fluoro-4-(2,2,2-trifluoro-ethylamino)-benzamide] showed an IC50 of 2 nM.

The compound `COc1c(/C=C/c2ccc(NS(C)(=O)=O)cn2)cc(-c2ccc[nH]c2=O)cc1C1(C(F)F)CC1` [I-258, N-(6-{(E)-2-[3-(1-Difluoromethyl-cyclopropyl)-2-methoxy-5-(2-oxo-1,2-dihydro-pyridin-3-yl)-phenyl]-vinyl}-pyridin-3-yl)-methanesulfonamide] had an IC50 of 1 nM.

For `COc1c(/C=C/c2ccc(NS(C)(=O)=O)cn2)cc(-c2cc(Cl)c[nH]c2=O)cc1C(C)(C)C` [I-261], the IC50 was 3 nM.

For the compound `COc1c(/C=C/c2ccc(NS(C)(=O)=O)cc2)cc(-c2cc(Cl)c[nH]c2=O)cc1C1(Cl)CC1` [I-264], the IC50 was found to be 5 nM.

For the compound `COc1c(/C=C/c2ccc(NS(C)(=O)=O)cc2)cc(-c2ccc(C)[nH]c2=O)cc1C1(Cl)CC1` [I-265], half-maximal inhibition (IC50) required 5 nM.

Take `COc1c(/C=C/c2ccc(NS(C)(=O)=O)cc2)cc(-c2ccc[nH]c2=O)cc1C1(OC)CC1` [I-266, N-(4-{(E)-2-[3-(1-methoxycyclopropyl)-5-(2-oxo-1,2-dihydropyridin-3-yl)-2-methoxyphenyl]vinyl}-phenyl)methanesulfonamide]: half-maximal inhibition (IC50) was put at 3 nM.

Regarding `COc1c(/C=C/c2ccc(NS(C)(=O)=O)cc2)cc(-c2cc(F)c[nH]c2=O)cc1C1(C(F)F)CC1` [I-269, N-(4-{(E)-2-[3-(1-Difluoromethyl-cyclopropyl)-5-(5-fluoro-2-oxo-1,2-dihydro-pyridin-3-yl)-2-methoxy-phenyl]-vinyl}-phenyl)-methanesulfonamide], the IC50 was 3 nM.

Turning to `CS(=O)(=O)Nc1ccc(/C=C/c2cc(-c3ccc[nH]c3=O)cc(C3(F)CCC3)c2)cc1` [I-271, N-(4-{(E)-2-[3-(1-Fluoro-cyclobutyl)-5-(2-oxo-1,2-dihydro-pyridin-3-yl)-phenyl]-vinyl}-phenyl)-methanesulfonamide], the IC50 was 4 nM.

In turn, `CC(C)(CO)c1cc(/C=C/c2ccc(NS(C)(=O)=O)cc2)cc(-c2ccc[nH]c2=O)c1` [I-272, N-(4-{(E)-2-[3-(2-Hydroxy-1,1-dimethyl-ethyl)-5-(2-oxo-1,2-dihydro-pyridin-3-yl)-phenyl]-vinyl}-phenyl)-methanesulfonamide] displayed an IC50 of 6 nM.

Take `CS(=O)(=O)Nc1ccc(/C=C/c2cc(-c3cc(F)c[nH]c3=O)cc(C3(Cl)CC3)c2)cc1` [I-273, N-(4-{(E)-2-[3-(1-Chloro-cyclopropyl)-5-(5-fluoro-2-oxo-1,2-dihydro-pyridin-3-yl)-phenyl]-vinyl}-phenyl)-methanesulfonamide]: the IC50 is 3 nM.

Take `CS(=O)(=O)Nc1ccc(/C=C/c2cc(-c3ccc[nH]c3=O)cc(C3(Cl)CC3)c2)cc1` [I-274, N-(4-{(E)-2-[3-(1-Chloro-cyclopropyl)-5-(2-oxo-1,2-dihydro-pyridin-3-yl)-phenyl]-vinyl}-phenyl)-methanesulfonamide]: the IC50 was found to be 2 nM.

`CS(=O)(=O)Nc1ccc(/C=C/c2cc(-c3ccc[nH]c3=O)cc(C3(C(F)F)CC3)c2)cc1` [I-275, N-(4-{(E)-2-[3-(1-Difluoromethyl-cyclopropyl)-5-(2-oxo-1,2-dihydro-pyridin-3-yl)-phenyl]-vinyl}-phenyl)-methanesulfonamide] had a concentration for half-maximal inhibition (IC50) of 1 nM.

Staying with this test, now noted: IC50 HCV NS5B RNA Polymerase Assay, values without asterisk; 20 nM NS5B570n-Con1 enzyme, 20 nM cIRES RNA template.
With `COc1c(NC(=O)c2ccc(N)nc2)cc(-c2ccc[nH]c2=O)cc1C(C)(C)C` [I-247, 6-Amino-N-[3-tert-butyl-2-methoxy-5-(2-oxo-1,2-dihydro-pyridin-3-yl)-phenyl]-nicotinamide], the IC50 came out at 22 nM.

The compound `COc1c(NC(=O)c2ccc(NCC(F)(F)F)nn2)cc(-c2ccc[nH]c2=O)cc1C(C)(C)C` [I-248, 6-(2,2,2-Trifluoro-ethylamino)-pyridazine-3-carboxylic acid [3-tert-butyl-2-methoxy-5-(2-oxo-1,2-dihydro-pyridin-3-yl)-phenyl]-amide] returned a 50% inhibitory concentration (IC50) of 19 nM.

In the case of `COc1c(NC(=O)c2ccc(O)cc2F)cc(-c2ccc[nH]c2=O)cc1C(C)(C)C` [I-252, N-[3-tert-Butyl-2-methoxy-5-(2-oxo-1,2-dihydro-pyridin-3-yl)-phenyl]-2-fluoro-4-hydroxy-benzamide], the IC50 was found to be 38 nM.

For the compound `COc1c(NC(=O)c2ccc(NCC(F)(F)F)cc2)cc(-c2ccc[nH]c2=O)cc1C(C)(C)C` [I-253, N-[3-tert-Butyl-2-methoxy-5-(2-oxo-1,2-dihydro-pyridin-3-yl)-phenyl]-4-(2,2,2-trifluoro-ethylamino)-benzamide], it took 2 nM to reach half-maximal inhibition (IC50).

`COCCNc1ccc(C(=O)Nc2cc(-c3ccc[nH]c3=O)cc(C(C)(C)C)c2OC)cn1` [I-254, N-[3-tert-Butyl-2-methoxy-5-(2-oxo-1,2-dihydro-pyridin-3-yl)-phenyl]-6-(2-methoxy-ethylamino)-nicotinamide] gave an IC50 of 141 nM.

On to `COc1c(NC(=O)c2ccc(NC3CC3)nc2)cc(-c2ccc[nH]c2=O)cc1C(C)(C)C` [I-255, N-[3-tert-Butyl-2-methoxy-5-(2-oxo-1,2-dihydro-pyridin-3-yl)-phenyl]-6-cyclopropylamino-nicotinamide], for which the IC50 amounted to 70 nM.

With `COc1c(NC(=O)c2ccc(NC3CC3)cc2)cc(-c2ccc[nH]c2=O)cc1C(C)(C)C` [I-256, N-[3-tert-Butyl-2-methoxy-5-(2-oxo-1,2-dihydro-pyridin-3-yl)-phenyl]4-cyclopropylamino-benzamide], the half-maximal inhibitory concentration (IC50) worked out at 19 nM.

In the case of `COCCNc1ccc(C(=O)Nc2cc(-c3ccc[nH]c3=O)cc(C(C)(C)C)c2OC)cc1` [I-257, N-[3-tert-Butyl-2-methoxy-5-(2-oxo-1,2-dihydro-pyridin-3-yl)-phenyl]-4-(2-methoxy-ethylamino)-benzamide], half-maximal inhibition (IC50) was put at 184 nM.

On to `COc1c(C(=O)Nc2cccc(NS(C)(=O)=O)c2)cc(-c2ccc[nH]c2=O)cc1C(C)(C)C` [I-259, 3-tert-Butyl-N-(3-methanesulfonylamino-phenyl)-2-methoxy-5-(2-oxo-1,2-dihydro-pyridin-3-yl)-benzamide], for which half-maximal inhibition (IC50) required 122 nM.

Compound `COc1c(C(=O)NC2CCC(NS(C)(=O)=O)CC2)cc(-c2ccc[nH]c2=O)cc1C(C)(C)C` (stereo not drawn) [I-260, 3-tert-Butyl-N-(4-methanesulfonylamino-cyclohexyl)-2-methoxy-5-(2-oxo-1,2-dihydro-pyridin-3-yl)-benzamide] returned an IC50 of 35 nM.

In the case of `COCCOc1cc(NS(C)(=O)=O)ccc1C(=O)Nc1cc(-c2ccc[nH]c2=O)cc(C(C)(C)C)c1OC` [I-276, N-[3-tert-Butyl-2-methoxy-5-(2-oxo-1,2-dihydro-pyridin-3-yl)-phenyl]-4-methanesulfonylamino-2-(2-methoxy-ethoxy)-benzamide], the IC50 was determined as 20 nM.

Turning to `COc1c(NC(=O)c2ccc(NC(C)=O)cc2)cc(-c2ccc[nH]c2=O)cc1C(C)(C)C` [I-277], the IC50 worked out at 357 nM.

As to `COc1c(NC(=O)c2ccc(N)c(C)c2)cc(-c2ccc[nH]c2=O)cc1C(C)(C)C` [I-278], the IC50 was 14 nM.

Consider `COc1c(NC(=O)c2ccc(N)cc2C(F)(F)F)cc(-c2ccc[nH]c2=O)cc1C(C)(C)C` [I-279], for which the IC50 amounted to 104 nM.

Compound `COc1c(NC(=O)c2ccc(N)cc2F)cc(-c2ccc[nH]c2=O)cc1C(C)(C)C` [I-280] came in with an IC50 of 10 nM.

With `COc1c(NC(=O)c2ccc(NS(C)(=O)=O)cc2F)cc(-c2ccc[nH]c2=O)cc1C(C)(C)C` [I-281], the IC50 came to 7 nM.

Turning to `COc1c(NC(=O)c2ccc(NS(C)(=O)=O)cc2C)cc(-c2ccc[nH]c2=O)cc1C(C)(C)C` [I-282], the IC50 worked out at 13 nM.

As for `COc1c(NC(=O)c2ccc(N)cn2)cc(-c2ccc[nH]c2=O)cc1C(C)(C)C` [I-283], the IC50 is 9 nM.

With `COc1c(NC(=O)c2ccc(N)cc2OCCN(C)C)cc(-c2ccc[nH]c2=O)cc1C(C)(C)C` [I-284], the IC50 was found to be 6270 nM.

As a reminder, the IC50 is the concentration that inhibits the measured activity by half. Low readings indicate higher potency, high ones lower potency.

The record behind these values is patent publication US8273773B2 (priority 2008, dated 2012).
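Also: recombinant His-tagged enzyme from E. coli, radiolabeled nucleotide incorporation into acid-insoluble RNA read by scintillation after filtration, no-enzyme background subtracted, activity relative to positive control.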
